# Laboratory results taken from patent publication US6576261B1, “Potentiation of inclusion complex formation of cyclodextrin derivatives” (priority 1999, dated 2003).
# Columns and labels:
# [1] = Solubilization of choline and sodium salts of FTS and other acidic drugs by cyclodextrins
# Experimental: The solid obtained thereby was heated on a boiling water bath.
# In this procedure, FTS (10 mg, 28 micromoles) was dissolved with warming in ethanol (20 microliters) and an aqueous solution of sodium hydroxide (30 microliters of 1 M NaOH carbonate free, i.e., 30 micromoles) was added. […] This clear solution then was added to the solution of Pitha methyl derivative (100 mg) in isotonic phosphate buffered saline (1 ml, pH 7.4).
# In these investigations, choline salts were prepared by extraction with organic solvents of mixtures of sodium salts of the anion in question and choline chloride. There mixtures were either solid or in aqueous solutions.
# [2] = Solubilization of additional guests by two different hosts; format: physicochemical; details: for solubility at 1 week: water containing solubilising hosts, aqueous with cosolvent or surfactant or cyclodextrin, thermodynamic from solid
# Source text: Techniques were as described in Example 1 and water was used as a solvent. As shown in Table for Example 4, complexes of two hosts increased the solubility of retinoic acid and taxol compared to the solubility obtained with individual hosts.
# physchem = assay: physchem
# Source text: A slight excess of FTS was equilibrated with water containing one host at 5% concentration or two hosts, each at 5% concentration, by rotation for a week. The suspension was then filtered through a millipore filter and the concentration of FTS in filtrate determined by ultraviolet spectrophotometry. […] The cooperativity index reflects the improvement in solubility obtained with each combination of two hosts over the solubility obtained with each of the individual hosts involved in the two-host system. It is computed by dividing the obtained solubility with two hosts by the sum of the individual solubilities obtained with each component.
# [3] = Solubilization of FTS by two different hosts in water (equilibration for a week, filtration, UV spectrophotometry); format: physicochemical; details: for solubility at 1 week: aqueous host solution, aqueous with cosolvent or surfactant or cyclodextrin, thermodynamic from solid
# Experimental: (§1) no enhancement with two hosts. Water was used as the solvent for all data in the Table for Example 1. When a sodium carbonate based buffer of pH 10 was used as a solvent (conditions in which FTS is converted to its salt), the solubility of FTS in TRIMEA combined with DIMEB or in TRIMEA combined with Pitha methyl derivatives exceeds 60 mg per ml. Cooperativity, in this case, could not be calculated since, in these conditions, even solubilization by one component alone (DIMEB or Pitha methyl derivative) was over 60 mg per ml.
# [4] = Solubilization of FTS by hosts in sodium carbonate based buffer of pH 10; format: physicochemical
# Experimental: as §1
# [5] = Solubilization of FTS by TRIMEA and DIMEB: continuous variation and concentration dependence; format: physicochemical
# [6] = as above; format: physicochemical; details: water
# Source text: The optimum ratio of hosts was established by the continuous variation method, using techniques of Example 1 and water as a solvent. The results in Table A for Example 3 indicate that the optimum solubility is obtained when both hosts are in about equal concentrations. […]
# [7] = host combination DIMEB - TRIMEB (first line, r7), water
# [8] = host combination DIMEB - TRIMEB (printed a second time, r8), water
# [9] = host combination TRIMEA - DIMEB, water
# [10] = hosts Alpha Cyclodextrin - DIMEB, each 5% in water
# [11] = hosts Alpha Cyclodextrin - TRIMEB, each 5% in water
# [12] = hosts Beta Cyclodextrin - TRIMEB, each 5% in water
# [13] = hosts DIMEB - PERM HPBCD, each 5% in water
# [14] = hosts DIMEB - TRIMEB, each 5% in water
# [15] = hosts DIMEB - TRIMEG, each 5% in water
# [16] = hosts G2 - DIMEB, each 5% in water
# [17] = hosts G2 - TRIMEB, each 5% in water
# [18] = hosts G2 - TRIMEG, each 5% in water
# [19] = hosts HPACD - HPBCD, each 5% in water
# [20] = hosts Pitha Methyl 258 - TRIMEB, each 5% in water
# [21] = hosts Pitha Methyl 322 - DIMEB, each 5% in water
# [22] = hosts TRIMEA - DIMEB, each 5% in water
# [23] = hosts TRIMEA - G2, each 5% in water
# [24] = hosts TRIMEA - Pitha Methyl 258, each 5% in water
# [25] = host combination TRIMEA - Pitha Methyl 258, water
# [26] = host combination TRIMEA - RAMEB, water
# [27] = host combination TRIMEA - TRIMEB, water
smiles,measurement,setting,value
C[C@@H]1[C@H](O)[C@@H](C)/C=C/C=C/C=C/C=C/C=C/C=C/C=C/[C@H](O[C@@H]2O[C@H](C)[C@@H](O)[C@H](N)[C@@H]2O)C[C@@H]2O[C@](O)(C[C@@H](O)C[C@@H](O)[C@H](O)CC[C@@H](O)C[C@@H](O)CC(=O)O[C@H]1C)C[C@H](O)[C@H]2C(=O)O [Amphotericin B],solubilization of choline salts,[1],easily solubilized
same,Cooperativity,[2]; [7],0.7
same,Solubility,[2]; [7],131 µg/mL
same,Cooperativity,[2]; [8],0.9
same,Solubility,[2]; [8],158 µg/mL
same,Cooperativity,[2]; [9],0.9
same,Solubility,[2]; [9],185 µg/mL
"CC(C)=CCCC(C)=CCCC(C)=CCSc1ccccc1C(=O)O [FTS, S-farnesylthiosalicylic acid]","single, highly methylated cyclodextrin host outperformed the current standard",physchem; 1 week,over 2 times
same,solubility at 1 week,[3]; [10],1400 µg/mL
same,solubility at 1 week,[3]; [11],100 µg/mL
same,solubility at 1 week,[3]; [12],26 µg/mL
same,solubility at 1 week,[3]; [13],1100 µg/mL
same,solubility at 1 week,[3]; [14],2600 µg/mL
same,solubility at 1 week,[3]; [15],1400 µg/mL
same,solubility at 1 week,[3]; [16],2400 µg/mL
same,solubility at 1 week,[3]; [17],1100 µg/mL
same,solubility at 1 week,[3]; [18],1000 µg/mL
same,solubility at 1 week,[3]; [19],52 µg/mL
same,solubility at 1 week,[3]; [20],950 µg/mL
same,solubility at 1 week,[3]; [21],1300 µg/mL
same,solubility at 1 week,[3]; [22],6600 µg/mL
same,solubility at 1 week,[3]; [23],3900 µg/mL
same,solubility at 1 week,[3]; [24],5700 µg/mL
same,Cooperativity (observed ÷ Σ components),[3]; [10],1.0
same,Cooperativity (observed ÷ Σ components),[3]; [11],0.6
same,Cooperativity (observed ÷ Σ components),[3]; [12],0.2
same,Cooperativity (observed ÷ Σ components),[3]; [13],0.8
same,Cooperativity (observed ÷ Σ components),[3]; [14],1.8
same,Cooperativity (observed ÷ Σ components),[3]; [15],1.0
same,Cooperativity (observed ÷ Σ components),[3]; [16],1.0
same,Cooperativity (observed ÷ Σ components),[3]; [17],1.0
same,Cooperativity (observed ÷ Σ components),[3]; [18],1.0
same,Cooperativity (observed ÷ Σ components),[3]; [19],0.3
same,Cooperativity (observed ÷ Σ components),[3]; [20],1.4
same,Cooperativity (observed ÷ Σ components),[3]; [21],0.7
same,Cooperativity (observed ÷ Σ components),[3]; [22],4.1
same,Cooperativity (observed ÷ Σ components),[3]; [23],3.0
same,Cooperativity (observed ÷ Σ components),[3]; [24],9.4
same,solubilization of choline salts,[1],easily solubilized
same,solubility of FTS,"[4]; TRIMEA combined with DIMEB, sodium carbonate based buffer of pH 10 (FTS converted to its salt)",exceeds 60 mg per ml
same,solubility of FTS,"[4]; TRIMEA combined with Pitha methyl derivatives, sodium carbonate based buffer of pH 10",exceeds 60 mg per ml
same,FTS,"[5]; TRIMEA 2 % w/w, DIMEB 2 % w/w",2.13 mg/mL
same,FTS,"[5]; TRIMEA 5 % w/w, DIMEB 5 % w/w",8.53 mg/mL
same,FTS,"[5]; TRIMEA 10 % w/w, DIMEB 10 % w/w",15.86 mg/mL
same,FTS (mg/ml),"[5]; TRIMEA 15 % w/w, DIMEB 15 % w/w","(>than 17.17, all dissolved) mg/ml"
same,FTS,"[6]; TRIMEA 0 % w/w, DIMEB 5 % w/w",1.55 mg/mL
same,FTS,"[6]; TRIMEA 1 % w/w, DIMEB 4 % w/w",2.29 mg/mL
same,FTS,"[6]; TRIMEA 2 % w/w, DIMEB 3 % w/w",2.66 mg/mL
same,FTS,"[6]; TRIMEA 3 % w/w, DIMEB 2 % w/w",2.79 mg/mL
same,FTS,"[6]; TRIMEA 4 % w/w, DIMEB 1 % w/w",2.33 mg/mL
same,FTS,"[6]; TRIMEA 5 % w/w, DIMEB 0 % w/w",0.19 mg/mL
CC1=C(/C=C/C(C)=C/C=C/C(C)=C/C(=O)O)C(C)(C)CCC1 [Retinoic Acid],"single, highly methylated cyclodextrin host outperformed the current standard",physchem; 1 week,2.5 times
same,Cooperativity,[2]; [9],1.45
same,Cooperativity,[2]; [25],1.13
same,Cooperativity,[2]; [26],1.08
same,Cooperativity,[2]; [27],0.7
same,solubility at 1 week,[2]; [9],71 µg/mL
same,solubility at 1 week,[2]; [25],52 µg/mL
same,solubility at 1 week,[2]; [26],56 µg/mL
same,solubility at 1 week,[2]; [27],12 µg/mL
CC(=O)O[C@H]1C(=O)[C@@]2(C)[C@H]([C@H](OC(=O)c3ccccc3)[C@]3(O)C[C@H](OC(=O)[C@H](O)[C@@H](NC(=O)c4ccccc4)c4ccccc4)C(C)=C1C3(C)C)[C@]1(OC(C)=O)CO[C@@H]1C[C@@H]2O [Taxol],Solubility,physchem; 1 week,380 µg/mL
same,solubility at 1 week,"physchem; aqueous with cosolvent or surfactant or cyclodextrin, thermodynamic from solid, Solubility",290 µg/mL
same,Cooperativity,[2]; [9],1.49
same,solubility at 1 week,[2]; [9],1000 µg/mL
CC(C)=CCC/C(C)=C/CC/C(C)=C/CSc1ccccc1C(=O)[O-].C[N+](C)(C)CCO [choline salt of FTS],precipitate formation upon acidification,[1]; cyclodextrin-solubilized salts,less prone to form precipitate upon acidification than sodium salts
same,pH of solution,"[1]; powder of choline salt of FTS with methylated beta-cyclodextrin dissolved in water, paper strip indicator",6.5
same,dissolution of the powder in water,[1]; solid powder of choline salt of FTS with methylated beta-cyclodextrin,dissolved easily and fully in water
CC(C)Cc1ccc(C(C)C(=O)O)cc1 (stereo not shown) [ibuprofen],solubilization of choline salts,[1],easily solubilized
COc1ccc2c(c1)c(CC(=O)O)c(C)n2C(=O)c1ccc(Cl)cc1 [indomethacin],solubilization of choline salts,[1],easily solubilized
CN1C(C(=O)Nc2ccccn2)=C(O)c2ccccc2S1(=O)=O [piroxicam],solubilization of choline salts,[1],easily solubilized
O=C(O)c1ccccc1O [salicylic acid],solubilization of choline salts,[1],easily solubilized
Nc1ccc(S(=O)(=O)Nc2ncccn2)cc1 [sulfadiazine],solubilization of choline salts,[1],easily solubilized
Cc1ccc(C(=O)Nc2ccc(S(=O)(=O)O)c3cc(S(=O)(=O)O)cc(S(=O)(=O)O)c23)cc1NC(=O)c1cccc(NC(=O)Nc2cccc(C(=O)Nc3cc(C(=O)Nc4ccc(S(=O)(=O)O)c5cc(S(=O)(=O)O)cc(S(=O)(=O)O)c45)ccc3C)c2)c1 [suramin],solubilization of choline salts,[1],easily solubilized
